Test results as given in patent US12257253B2, “Triamterene or nolatrexed for use in the treatment of phenylketonuria” (SOM INNOVATION BIOTECH, S.A., priority 2019, dated 2025).
Structures can show the parent of a compound that is named as a salt.

Columns and labels:
Format in all cases: cell-based
[1] = target: T1, Arg261Gln (R261Q) PAH (Homo sapiens (Human), UniProt P00439, R261Q); test: Phenylalanine hydroxylase enzyme activity assay in transfected COS7 cells; details: compound 10 μM (sepiapterin 5 μM), 48 h
Procedure: (§1) 2. Phenylalanine Hydroxylase Enzyme Activity Assay
(§2) This assay was completed in cell culture to analyze the enzyme activity in the presence of compounds. In brief, wild-type or Arg261Gln PAH constructs were transiently expressed in COS7-cells in a 96 well format reflecting the PAH genotype (COS7 cell line has no endogenous PAH). Cells were treated with the compounds at a final concentration of 10 μM and the enzyme activity of PAH was analyzed 48 h after transfection. The effect of the compounds on the residual enzyme activity was determined in comparison to non-treated cells (NCC, only compound solvent final 0.1%). To normalize the cellular background signal non transfected cells (NT control) were treated with compound or solvent equally for 48 h. As a positive control we used sepiapterin, a stable precursor of BH4 (CAS 17094-01-8), stabilized in 100 mM DTT, in a final concentration of 5 μM.
(§3) PAH activities were assayed at 25° C. as previously described (Gersting, S. W., J. Biol. Chem., 2010, 285(40), 30686-30697) with modifications. The standard mixture contained 22.35 mM NaHepes, pH 7.0, […] catalase, 10 μM ferrous ammonium sulphate, and 1 mM L-Phe (L-phenylalanine) final. Assay mixture and cell culture enzyme were pre-incubated for 5 min and the reaction was initiated by the addition of 75 μM BH4 (stabilized in 100 mM dithiothreitol) final, run for 60 min and stopped by acetic acid. The amount of L-tyrosine production was measured and quantified by HPLC, assayed as triplicates.
(§4) The effect of compound on PAH enzyme activity was calculated from triplicates as follows: first the background of the NT cells were subtracted from the transfected cells (treated or NCC) and then the percentage of treated (compound) versus NCC was determined. Enzyme activity greater than 100% represents an increase in the enzyme activity with respect to NCC.

[2] = target: T2, wild-type PAH (Homo sapiens (Human), UniProt P00439); test: as above; details: compound 10 μM (sepiapterin 5 μM), 48 h
Procedure: as §1, §2, §3, §4

[3] = target: T2, wild-type PAH; test: Phenylalanine hydroxylase residual protein amount (dot blot, COS-7 lysates); details: COS-7, 48 h, COS-7 cells, compound 10 μM (sepiapterin 5 μM), read-out: PAH protein level (immune blot signal) WT PAH Mean
Procedure: (§5) 3. Phenylalanine Hydroxylase Residual Protein Amount
(§6) The analysis of the residual PAH protein amount was based on the method described in Gersting S. W. et al., Human Molecular Genetics, 2010, 19(10), 2039-2049 with modifications.
(§7) Detection of the residual PAH protein amount was performed as a dot blot using the lysates obtained from the cell culture where transiently transfected COS-7 cells (with wild-type PAH or PAH variant) were exposed for 48 h to compounds. The experiment was carried out from the same samples as used for measuring enzyme activities.
(§8) 2 μl of the lysate were dropped onto the nitrocellulose membrane. The membrane was allowed to air dry at room temperature for 30 min followed by 40 min blocking in 5% milk in TBS-Tween (room temperature). The membrane was incubated with the mouse monoclonal primary antibody specific for PAH (Millipore, Cat. No. MAB5278, 1:1000 dilution in 5% milk in TBS-Tween) for overnight at 4° C. Next, the membrane was washed (3×10 min in TBS-Tween) and incubated with the secondary HRP-conjugated antibody (anti-mouse antibody; Santa Cruz Biotechnology, Inc., Cat. No. sc-2005; 1:1000 dilution in 5% milk in TBS-Tween) followed by thorough washing in TBS-Tween (3×10 min) and distilled water (1×10 min). Blots were visualized with Pierce™ ECL substrate (ThermoFisher Scientific, Cat No. 32106) and chemiluminescence was monitored with a DIANA III Imaging system or ChemiDoc™ MP Imaging System (BioRad). To analyze the compound effect on the PAH protein amount densitometry analysis was performed using ImageJ Software.
(§9) The effect of compound on PAH protein amount was calculated from triplicates. As for determination of the enzyme activity the background of the not transfected cells (NT) was subtracted from the transfected cells (NCC or compound treated). In the next step delta of the NCC versus compound treated cells was calculated. Residual protein amount greater than 100% represents an increase in the stability of the enzyme with respect to NCC.

[4] = target: T1, Arg261Gln (R261Q) PAH; test: as above; details: COS-7, 48 h, COS-7 cells, compound 10 μM (sepiapterin 5 μM), read-out: PAH protein level (immune blot signal) R261Q PAH Mean
Procedure: as §5, §6, §7, §8, §9

T2 sequence (P00439 whole entry): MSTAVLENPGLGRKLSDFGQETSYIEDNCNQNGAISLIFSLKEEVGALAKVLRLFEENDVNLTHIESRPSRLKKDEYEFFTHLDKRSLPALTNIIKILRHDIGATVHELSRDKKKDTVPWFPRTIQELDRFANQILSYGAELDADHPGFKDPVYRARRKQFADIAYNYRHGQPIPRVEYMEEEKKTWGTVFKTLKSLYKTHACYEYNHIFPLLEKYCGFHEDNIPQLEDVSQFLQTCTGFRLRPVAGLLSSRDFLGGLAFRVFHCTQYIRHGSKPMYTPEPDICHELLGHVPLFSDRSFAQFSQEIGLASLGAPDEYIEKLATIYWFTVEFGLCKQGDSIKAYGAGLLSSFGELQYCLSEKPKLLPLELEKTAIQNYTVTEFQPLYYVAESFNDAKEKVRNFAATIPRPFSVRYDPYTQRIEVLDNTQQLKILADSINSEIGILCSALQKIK
T1 sequence (P00439 whole entry R261Q): as the sequence (P00439 whole entry) above, with R261Q counted along it

Compound	PAH enzyme activity (L-Tyrosine formation) R261Q PAH Mean [1]	PAH enzyme activity (L-Tyrosine formation) WT PAH Mean [2]	PAH protein level (% of control) at 10 µM [3]	PAH protein level (% of control) at 10 µM [4]
C[C@H](O)C(=O)C1=Nc2c([nH]c(N)nc2=O)NC1 [Sepiapterin, S-(−)-2-amino-7,8-dihydro-6-(2-hydroxy-1-oxopropyl)-4(1H)-pteridinone]	2089.79 % NCC	297.14 % NCC	106%	
CCN1CCCC1CNC(=O)c1cc(S(=O)(=O)CC)ccc1OC (stereo not drawn) [Sultopride HCl, N-[(1-ethyl-2-pyrrolidinyl)methyl]-5-(ethylsulfonyl)-o-anisamide]	131.23 % NCC	104.71 % NCC		
Cc1ccc2[nH]c(N)nc(=O)c2c1Sc1ccncc1 [Nolatrexed 2HCl, 2-amino-6-methyl-5-(4-pyridylthio)-4(3H)-quinazolinone]	531.60 % NCC	284.15 % NCC	108%	256%
